We go through six compounds from DBAASP.

Among the test systems are Escherichia coli UB1005; Escherichia coli K88; Candida albicans; Escherichia coli; Staphylococcus aureus; Pseudomonas aeruginosa; Escherichia coli K99; Acinetobacter baumannii; Klebsiella pneumoniae.
What all share (assay): ≥ marks a high value that may be exact or a test limit, other limits are often not marked, values filed in µg/mL are converted to µM
The subject of test [1] is Staphylococcus epidermidis ATCC 12228.
Test [2] has as its system Escherichia coli CVCC 1515.
Test [3] concerns Salmonella enterica subsp. enterica serovar Typhimurium ATCC 14028.
Test [4] relates to Escherichia coli ATCC 25922.
The test system of test [5] is Pseudomonas aeruginosa ATCC 27853.
The test system of test [6] is Staphylococcus aureus ATCC 29213.
Test [7] concerns Candida albicans ATCC 90029.
Test [8] deals with Pseudomonas aeruginosa CICC 21630.
In test [9] the test system is Salmonella enterica subsp. enterica serovar Typhimurium C77-31.
Test [10] deals with Salmonella enterica subsp. enterica serovar Pullorum C79-13.
The subject of test [11] is Pseudomonas aeruginosa PAO1.
For test [12], the system named is Pseudomonas aeruginosa CICC 21625.
In test [13] the test system is Erwinia amylovora PMV 6076.
For test [14], the system named is Fusarium oxysporum f. sp. lycopersici ATCC 201829.
In test [15] the test system is Xanthomonas vesicatoria 2133-2.
In test [16] the test system is Aspergillus niger CECT 2694.
For test [17], the system named is Penicillium expansum EPS 26.
In test [18] the test system is Rhizopus stolonifer CECT 2344.
Test [19] deals with Pseudomonas syringae EPS 94.

≈ marks a conversion by molar mass, not a printed value.

What is called MIC is the smallest concentration in the dilution series that meets the test's criterion for growth inhibition. A low value points to greater potency. Turning to `CC(C)C[C@H](NC(=O)[C@H](Cc1c[nH]c2ccccc12)NC(=O)[C@H](C)NC(=O)[C@H](CCCCN)NC(=O)[C@H](C)NC(=O)[C@H](C)N)C(=O)N[C@@H](CCCCN)C(=O)N[C@@H](CC(C)C)C(=O)N[C@@H](Cc1c[nH]c2ccccc12)C(=O)N[C@@H](C)C(=O)N[C@@H](CCCCN)C(=O)N[C@@H](C)C(=O)N[C@@H](C)C(N)=O` [AAKAWLKLWAKAA], the minimum inhibitory concentration (MIC) was found to be 64 µM (≈ 91.3 µg/mL) in test [1]; 16 µM (≈ 22.8 µg/mL) in test [2]; 32 µM (≈ 45.7 µg/mL) in test [3]; 2 µM (≈ 2.85 µg/mL) in test [4]; 64 µM (≈ 91.3 µg/mL) in test [5]; 64 µM (≈ 91.3 µg/mL) in [6]. The minimum inhibitory concentration (MIC) in the test with Escherichia coli UB1005 stood at 16 µM (≈ 22.8 µg/mL); against Escherichia coli K88 it was 8 µM (≈ 11.4 µg/mL).
For `CC(C)C[C@H](NC(=O)[C@H](CCCN=C(N)N)NC(=O)[C@H](Cc1cnc[nH]1)NC(=O)[C@H](CCCN=C(N)N)NC(=O)[C@H](CC(C)C)NC(=O)[C@H](CC(C)C)NC(=O)[C@@H](N)CCCCN)C(=O)N[C@@H](CC(C)C)C(=O)N[C@H](C(=O)N[C@H](C(=O)N[C@@H](CC(C)C)C(=O)N[C@@H](C)C(=O)O)[C@@H](C)O)C(C)C` [KLLRHRLLVTLA], the MIC was no less than 69.8 µM in [7]; greater than 69.8 µM against Candida albicans; 2.18 µM (≈ 3.12 µg/mL) in test [4]; 4.36 µM (≈ 6.25 µg/mL) with Escherichia coli; 4.36 µM (≈ 6.25 µg/mL) in the test on Staphylococcus aureus; 4.36 µM (≈ 6.25 µg/mL) in [6]. Also, the MIC against Pseudomonas aeruginosa was 8.72 µM (≈ 12.5 µg/mL).
Take `CC(C)C[C@H](NC(=O)[C@@H]1CCCN1C(=O)[C@H](CCCN=C(N)N)NC(=O)[C@H](CC(C)C)NC(=O)[C@H](CC(C)C)NC(=O)[C@@H]1CCCN1C(=O)[C@H](CCCN=C(N)N)NC(=O)[C@H](CC(C)C)NC(=O)[C@H](CC(C)C)NC(=O)[C@@H]1CCCN1C(=O)[C@H](CCCN=C(N)N)NC(=O)[C@H](CC(C)C)NC(=O)[C@H](CC(C)C)NC(=O)[C@@H]1CCCN1C(=O)[C@H](CCCN=C(N)N)NC(=O)[C@H](CC(C)C)NC(=O)[C@H](CC(C)C)NC(=O)[C@@H]1CCCN1C(=O)[C@H](CCCN=C(N)N)NC(=O)[C@H](CC(C)C)NC(=O)[C@H](CC(C)C)NC(=O)[C@@H]1CCCN1C(=O)[C@H](CCCN=C(N)N)NC(=O)[C@@H](N)CC(C)C)C(N)=O` [LRPLLRPLLRPLLRPLLRPLLRPL]: the MIC with Escherichia coli K99 was 2 µM (≈ 5.79 µg/mL); in test [3], 4 µM (≈ 11.6 µg/mL); in test [4] it was 2 µM (≈ 5.79 µg/mL); with Escherichia coli, 2 µM (≈ 5.79 µg/mL); in [5], 8 µM (≈ 23.2 µg/mL); in test [8], 8 µM (≈ 23.2 µg/mL). Further, the MIC against Acinetobacter baumannii was found to be 2 µM (≈ 5.79 µg/mL); in [9] it was 2 µM (≈ 5.79 µg/mL); in test [10] it was 2 µM (≈ 5.79 µg/mL); in test [11] it was 4 µM (≈ 11.6 µg/mL); against Klebsiella pneumoniae, 8 µM (≈ 23.2 µg/mL); in the test on Pseudomonas aeruginosa it was 32 µM (≈ 92.6 µg/mL). Also, the minimum inhibitory concentration (MIC) in [12] was no less than 32 µM; in the test with Escherichia coli UB1005, 2 µM (≈ 5.79 µg/mL); in the test on Escherichia coli K88, 2 µM (≈ 5.79 µg/mL).
With `CC(C)C[C@H](NC(=O)[C@@H]1CCCN1C(=O)[C@H](CCCN=C(N)N)NC(=O)[C@H](CC(C)C)NC(=O)[C@H](CC(C)C)NC(=O)[C@@H]1CCCN1C(=O)[C@H](CCCN=C(N)N)NC(=O)[C@H](CC(C)C)NC(=O)[C@H](CC(C)C)NC(=O)[C@@H]1CCCN1C(=O)[C@H](CCCN=C(N)N)NC(=O)[C@H](CC(C)C)NC(=O)[C@H](CC(C)C)NC(=O)[C@@H]1CCCN1C(=O)[C@H](CCCN=C(N)N)NC(=O)[C@H](CC(C)C)NC(=O)[C@H](CC(C)C)NC(=O)[C@@H]1CCCN1C(=O)[C@H](CCCN=C(N)N)NC(=O)[C@@H](N)CC(C)C)C(N)=O` [LRPLLRPLLRPLLRPLLRPL], the MIC against Escherichia coli K99 was found to be 4 µM (≈ 9.66 µg/mL); in test [3], 4 µM (≈ 9.66 µg/mL); in [4] it was 4 µM (≈ 9.66 µg/mL); in the test with Escherichia coli, 4 µM (≈ 9.66 µg/mL); in [5] it was 32 µM (≈ 77.3 µg/mL); in [8], 16 µM (≈ 38.6 µg/mL). Further, the minimal inhibitory concentration (MIC) is 2 µM (≈ 4.83 µg/mL) in the test with Acinetobacter baumannii; 4 µM (≈ 9.66 µg/mL) in test [9]; 2 µM (≈ 4.83 µg/mL) in test [10]; 32 µM (≈ 77.3 µg/mL) in test [11]; 8 µM (≈ 19.3 µg/mL) in the test on Klebsiella pneumoniae; 32 µM (≈ 77.3 µg/mL) against Pseudomonas aeruginosa. For the same compound, the MIC was no less than 32 µM in [12], 4 µM (≈ 9.66 µg/mL) in the test with Escherichia coli UB1005 and 2 µM (≈ 4.83 µg/mL) in the test on Escherichia coli K88.
For the compound `CC(C)C[C@H](NC(=O)[C@H](Cc1cnc[nH]1)NC(=O)[C@H](CO)NC(=O)[C@H](C)NC(=O)[C@H](CC(C)C)NC(=O)[C@@H](NC(=O)[C@@H](NC(=O)[C@H](CC(C)C)NC(=O)[C@H](CC(C)C)NC(=O)[C@H](CO)NC(=O)[C@H](Cc1cnc[nH]1)NC(=O)[C@H](CO)NC(=O)[C@H](CC(C)C)NC(=O)[C@H](CC(C)C)NC(=O)[C@H](CCCCN)NC(=O)[C@H](Cc1ccccc1)NC(=O)[C@H](CCCN=C(N)N)NC(=O)[C@@H](N)C(C)C)C(C)C)[C@@H](C)O)C(=O)O` [VRFKLLSHSLLVTLASHL], the MIC in [7] worked out at 12.3 µM (≈ 25 µg/mL); against Candida albicans, 12.3 µM (≈ 25 µg/mL); in test [4], 3.07 µM (≈ 6.25 µg/mL); against Escherichia coli, 6.14 µM (≈ 12.5 µg/mL); in the test on Staphylococcus aureus it was 3.07 µM (≈ 6.25 µg/mL); in [6], 6.14 µM (≈ 12.5 µg/mL). For the same compound, the MIC with Pseudomonas aeruginosa was found to be 3.07 µM (≈ 6.25 µg/mL).
On to `CC[C@H](C)[C@H](NC(=O)[C@H](CCCCN)NC(=O)[C@H](CCCCN)NC(=O)[C@H](Cc1ccccc1)NC(=O)[C@H](CC(C)C)NC(=O)[C@H](CCCCN)NC(=O)[C@@H](N)Cc1c[nH]c2ccccc12)C(=O)N[C@@H](CC(C)C)C(=O)N[C@@H](CCCCN)C(=O)N[C@@H](Cc1ccccc1)C(=O)N[C@@H](CC(C)C)C(N)=O` [WKLFKKILKFL], for which the MIC in test [13] is 5.92 µM (≈ 8.65 µg/mL); in test [14], 1.73 µM (≈ 2.53 µg/mL); in test [15] it was 2 µM (≈ 2.93 µg/mL); in test [16] it was 22.4 µM (≈ 32.7 µg/mL); in test [17], 22.4 µM (≈ 32.7 µg/mL); in test [18], no less than 35.4 µM. The compound further showed a minimum inhibitory concentration (MIC) in test [19] of 5.92 µM (≈ 8.65 µg/mL).
